Common to all, as to experiment: DTP human tumour cell line panel, 48 h
Experiment [1] concerns IGROV1 ovarian.
Experiment [2] deals with UACC-257 melanoma.
Experiment [3] deals with SF-268 CNS.
The subject of experiment [4] is NCI-H226 lung.
Experiment [5] concerns NCI-H460 lung.
The test system of experiment [6] is RXF 393 renal.
For experiment [7], the system named is HCC-2998 colon.
Experiment [8] deals with T-47D breast.
In experiment [9] the test system is U251 CNS.
Experiment [10] has as its system OVCAR-4 ovarian.
For experiment [11], the system named is 786-0 renal.
Experiment [12] has as its system SF-539 CNS.
For experiment [13], the system named is UO-31 renal.
Experiment [14] relates to HL-60(TB) leukemia.

Where “and” joins values, the source holds several entries; their conditions need not be identical. Equal entries are not always repeated.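 Each compound was tested at five concentrations against cells in 96-well plates for 48 hours. The concentration for 50% growth inhibition is given as GI50. TGI marks complete inhibition of growth.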

For `C[C@@H]1CC[C@@H]2[C@@H](C1)O[C@@H]([C@@H](C)OCc1ccccc1)SC2(C)C`, the TGI was 63.3 µM in experiment [1]; 39.9 µM in experiment [2]; 51.8 µM in experiment [3]; 34.5 µM in experiment [4]; 49.1 µM in experiment [5]; 30.7 µM in [6]. Besides, the TGI was found to be 33.7 µM in experiment [7]; 32.4 µM in [8]; 32.6 µM in experiment [9]; 69.7 µM in experiment [10]; 34 µM in [11]; 33.6 µM in experiment [12]. In [13], this compound registered a TGI of 30.6 µM.
For the compound `C#C[C@]1(O)CC[C@H]2[C@@H]3CCc4cc(O)ccc4[C@H]3CC[C@@]21C`, the TGI in [1] is above 100 µM; in experiment [2], above 100 µM; in experiment [3], above 100 µM; in experiment [4] it was 92.8 µM; in experiment [14], 94 µM; in [5], 82.5 µM. The TGI in [6] is 62.2 µM; in experiment [7], 73.8 µM; in experiment [11], above 100 µM; in experiment [12], 40.4 µM.
As to `CC(C)CC(N)C(=O)NC(C(=O)NC(CCCNC(=N)N)C(=O)NC(CS)C(=O)NC1CSCC(C(=O)NC(Cc2ccccc2)C(=O)NC(C(=O)NC(CCCNC(=N)N)C(=O)O)C(C)C)NC(=O)C2CCCN2C(=O)C(CCCCN)NC(=O)C2CCCN2C(=O)C2CCCN2C(=O)C(Cc2ccc(O)cc2)NC(=O)C(CO)NC(=O)C(CCCCN)NC(=O)C(C(C)O)NC(=O)C(Cc2c[nH]c3ccccc23)NC1=O)C(C)C` (centres undefined), the TGI in experiment [1], in experiment [2], in [3], in [4], in experiment [14] and in [8] was above 25 µM throughout. In addition, the TGI in experiment [9], in [10], in [11], in experiment [12] and in experiment [13] was above 25 µM in each case.
On to `COc1ccc(CCn2cncn2)cc1`, for which the total growth inhibition concentration (TGI) in experiment [1], in [2], in experiment [3], in experiment [4], in [14] and in [5] was above 100 µM in each case. Besides, the total growth inhibition concentration (TGI) in experiment [7], in experiment [9], in experiment [10], in experiment [12] and in [13] was above 100 µM throughout.
Consider `COc1ccccc1-c1c(C#N)c(N)[nH]c(=S)c1C#N`, for which the total growth inhibition concentration (TGI) in experiment [1], in experiment [2], in experiment [3], in experiment [4], in [14] and in experiment [5] was above 100 µM each time. The concentration for total growth inhibition (TGI) in experiment [6], in [7], in experiment [9], in experiment [10], in experiment [11] and in experiment [12] was above 100 µM each time. Besides, the total growth inhibition concentration (TGI) in [13] was above 100 µM.
As for `Nc1nc(SCC(=O)c2ccc(Br)cc2)c2[nH]cnc2n1`, the TGI was 50.8 µM in experiment [1]; above 100 µM in experiment [2]; above 100 µM in experiment [3]; above 100 µM in experiment [4]; 63.1 µM in [14]; above 100 µM in [5]. Besides, the TGI in experiment [6] was above 100 µM; in experiment [8], 98.7 µM; in [9], above 100 µM; in experiment [10] it was above 100 µM; in experiment [11], above 100 µM; in experiment [13], above 100 µM.
Turning to `O=c1c2cc(O)ccc2n2nnc3ccc(NCCNCCO)c1c32`, the GI50 in experiment [1] was 14.4 µM and 5.57 µM; in experiment [2], 20.5 µM and 6.76 µM; in [14] it was 6.46 µM and 1.88 µM; in [5], 28.9 µM and 4.01 µM; in experiment [6], 3.26 µM and 1.15 µM; in [7], 10.9 µM and 3.43 µM. Moreover, the TGI was > 78.7 µM and 39.1 µM in experiment [1]; 53.8 µM and 20.7 µM in [2]; 11.2 µM and 13.1 µM in [3]; 26.7 µM and 11.5 µM in experiment [4]; > 42.2 µM and 13.1 µM in [14]; > 57.4 µM and 23.6 µM in [5]. The TGI in experiment [6] was 14.4 µM and 9.34 µM; in experiment [7], 26.4 µM and 14.5 µM; in [9], 7.43 µM and 13.3 µM; in [10], 33.2 µM and 15.9 µM; in experiment [11] it was > 100 µM and 24 µM; in experiment [12] it was 15.9 µM and 14.9 µM. For the same compound, in [13], the TGI is > 100 µM and 70.2 µM.
For the compound `CCc1n[nH]c(=O)n1/N=C(\C)c1ccccc1`, the total growth inhibition concentration (TGI) in experiment [1], in experiment [2], in experiment [3], in [4], in [14] and in [6] was above 100 µM each time. The TGI in experiment [8], in [9], in experiment [10], in experiment [11], in experiment [12] and in [13] was above 100 µM in each case.
`COc1cc(C2S/C(=C/c3ccccc3)C(=O)N2c2cccc(NC(C)=O)c2)cc(OC)c1OC` (centres undefined): the concentration for total growth inhibition (TGI) in experiment [2] is above 100 µM; in experiment [3], above 100 µM; in [4], above 100 µM; in [6], above 100 µM; in experiment [7], above 100 µM; in experiment [8] it was 68.6 µM. Further, the concentration for total growth inhibition (TGI) was 50.8 µM in experiment [9], above 100 µM in experiment [10] and above 100 µM in experiment [13].
Take `O=C(Nc1ccccc1)Oc1ccc(C(=S)Nc2ccc(Br)cc2)cc1`: the concentration for total growth inhibition (TGI) in experiment [1] is 28 µM; in experiment [2], 67.1 µM; in experiment [3], above 100 µM; in experiment [14], 30.3 µM; in experiment [5], 59.3 µM; in [7] it was 40.8 µM. The TGI in experiment [8] stood at 75.1 µM; in experiment [9], 56.1 µM; in experiment [10], 86.3 µM; in [11], 52.2 µM; in experiment [12], 53 µM.
For the compound `CC(=O)c1ccc(Nc2c3ccccc3nc3occc23)cc1`, the total growth inhibition concentration (TGI) was 0.607 µM in experiment [1]; 48.8 µM in experiment [2]; 7.49 µM in [3]; 45.2 µM in experiment [4]; below 0.01 µM in experiment [14]; 0.453 µM in experiment [5]. Further, the TGI was below 0.0216 µM in experiment [6]; 0.794 µM in [7]; 32.8 µM in experiment [8]; above 4.64 µM in [9]; 3.19 µM in experiment [11]; above 100 µM in experiment [13].
Take `N#C/C(=C(/O)CCl)c1nc2ccccc2o1`: the TGI in [1] was found to be 4.09 µM; in experiment [2] it was 13.2 µM; in experiment [3], 8.57 µM; in [4], 5.07 µM; in [14] it was 7.04 µM; in experiment [5], 14.3 µM. For the same compound, the concentration for total growth inhibition (TGI) in [6] turned out to be 3.77 µM; in experiment [8], 44.6 µM; in experiment [9] it was 23.8 µM; in [10], 3.97 µM; in [11], 41.3 µM; in experiment [12] it was 8.74 µM. In [13], this compound yielded a TGI of 12.7 µM.
As for `O=P(NCCCO)(OCc1ccccc1)N(CCCl)CCCl` (centres undefined), the total growth inhibition concentration (TGI) in experiment [1], in experiment [2], in experiment [3], in experiment [4], in experiment [14] and in [5] was above 100 µM throughout. The TGI in [6], in experiment [7], in experiment [9], in experiment [10], in experiment [12] and in experiment [13] was above 100 µM throughout.
For the compound `CN(CCc1ccccn1)c1ccc2c(c1)C(=O)c1ccccc1-2`, the TGI in [1], in experiment [2], in experiment [3], in experiment [4], in experiment [5] and in [6] was above 100 µM throughout. Also, the total growth inhibition concentration (TGI) in [7], in experiment [8], in [9], in experiment [10], in [11] and in [13] was above 100 µM each time.
For the compound `COc1ccc(N2C(=O)C(=O)C3(CCCCC3)C2=O)c2ccccc12`, the total growth inhibition concentration (TGI) in [1], in experiment [3], in experiment [4], in [14], in experiment [5] and in [6] was above 10 µM in each case. Further, the TGI in [7], in [8], in experiment [9], in experiment [10], in experiment [12] and in [13] was above 10 µM in each case.
Take `COc1ccc(C2C3CCc4ccccc4C3=NN2S(=O)(=O)c2cccc(C(=O)O)c2OC)cc1` (centres undefined): the TGI in experiment [1] is above 100 µM; in experiment [3], above 100 µM; in [4], above 100 µM; in [14], above 100 µM; in experiment [5] it was above 100 µM; in experiment [6], 62 µM. For the same compound, the TGI was above 100 µM in experiment [8]; 34.9 µM in experiment [9]; above 100 µM in experiment [10]; above 100 µM in experiment [11]; 22 µM in [12]; above 100 µM in experiment [13].

Usually TGI stands for the concentration at which net growth stops. Higher therefore signals less potent growth arrest. Broadly, the GI50 is the concentration at which growth is held to half of that of the control.

Values taken from PubChem BioAssay (NCI).
